# Measurements taken from US20200131669A1, “CYCLIC PEPTIDE COMPOUND HAVING HIGH MEMBRANE PERMEABILITY, AND LIBRARY CONTAINING SAME” (Chugai Seiyaku Kabushiki Kaisha, priority 2017, published 2020).
# Positions of bridges follow the written chain, without caps; N, C: chain ends. Non-standard residues stand in square brackets, D forms with d. Residues, ends and D or L forms follow the SMILES beside them. *: point of attachment. Phe(4-CF3) = N[C@@H](Cc1ccc(C(F)(F)F)cc1)C(=O)O; NMeF = CN[C@@H](Cc1ccccc1)C(=O)O; NMeI = CC[C@H](C)[C@H](NC)C(=O)O; NMeL = CN[C@@H](CC(C)C)C(=O)O; NMeV = CN[C@H](C(=O)O)C(C)C; Pip = O=C(O)[C@@H]1CCCCN1; NMeA = CN[C@@H](C)C(=O)O; Piperidide = C1CCN(*)CC1; NPrGly = CCCNCC(=O)O; NEtG = CCNCC(=O)O; Sar = CNCC(=O)O; tBu = CC(C)(C)*
# Assay: Caco-2 membrane permeability, improved method as used in the following Examples (96-well, 20 to 24 h preincubation)
# Type: in vitro ADME
# Conditions: human, Caco-2, Caco-2 (cm/sec)
# Procedure, shortened: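 Papp (cm/sec) was derived from LC/MS of basal samples collected 180 min after apical dosing in FaSSIF/HBSS pH 6.0 with 1% DMSO, against a basal HBSS pH 7.4 receiver containing 4% BSA. Three-week Caco-2 cultures were first preincubated with compound in DMEM+FaSSIF at 37 °C for 20–24 h.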
row,SMILES,Papp A→B at 180 min [nm/s]
1,CC(C)C[C@H]1C(=O)N[C@@H](COC(C)(C)C)C(=O)N(C)[C@@H](Cc2ccccc2)C(=O)N(C)[C@@H](C)C(=O)N[C@H](C(=O)N2CCCCC2)CC(=O)N[C@H](C(C)C)C(=O)N(C)[C@@H](C(C)C)C(=O)N[C@@H](Cc2ccc(C(F)(F)F)cc2)C(=O)N(C)[C@@H](CC(C)C)C(=O)N[C@@H]([C@@H](C)O)C(=O)N(C)CC(=O)N1C [pd134] ([dV][NMeV][Phe(4-CF3)][NMeL]T[Sar][NMeL]S(tBu)[NMeF][NMeA]D-Piperidide; lactam N-11),26
2,CC(C)C[C@H]1C(=O)N(C)[C@@H](C)C(=O)N(C)[C@@H](Cc2ccccc2)C(=O)N[C@@H]([C@@H](C)O)C(=O)N(C)[C@@H](CC(C)C)C(=O)N[C@@H](Cc2ccc(C(F)(F)F)cc2)C(=O)N2CCC[C@H]2C(=O)N[C@H](C(=O)N2CCCCC2)CC(=O)N1C [pd135] ([NMeL][NMeA][NMeF]T[NMeL][Phe(4-CF3)]PD-Piperidide; lactam N-8),13
3,CC(C)C[C@H]1C(=O)N[C@@H]([C@@H](C)O)C(=O)N2CCC[C@H]2C(=O)N(C)[C@@H](C)C(=O)N[C@@H](Cc2ccc(C(F)(F)F)cc2)C(=O)N(C)[C@@H](CC(C)C)C(=O)N(C)[C@@H](CC(C)C)C(=O)N[C@H](C(=O)N2CCCCC2)CC(=O)N1C [pd136] ([NMeL]TP[NMeA][Phe(4-CF3)][NMeL][NMeL]D-Piperidide; lactam N-8),16
4,CC(C)C[C@H]1C(=O)N[C@H](C(=O)N2CCCCC2)CC(=O)N[C@H](C)C(=O)N(C)[C@@H](CC(C)C)C(=O)N[C@@H](COC(C)(C)C)C(=O)N(C)[C@@H](CC(C)C)C(=O)N2CCCC[C@H]2C(=O)N(C)[C@@H](C)C(=O)N[C@@H]([C@@H](C)O)C(=O)N(C)[C@@H](Cc2ccccc2)C(=O)N[C@@H](Cc2ccc(C(F)(F)F)cc2)C(=O)N1C [pd137] ([dA][NMeL]S(tBu)[NMeL][Pip][NMeA]T[NMeF][Phe(4-CF3)][NMeL]D-Piperidide; lactam N-11),22
5,CC(C)C[C@H]1C(=O)N[C@@H](COC(C)(C)C)C(=O)N(C)[C@@H](Cc2ccccc2)C(=O)N(C)[C@@H](C)C(=O)N[C@H](C(=O)N2CCCCC2)CC(=O)N[C@H](C(C)C)C(=O)N(C)[C@@H](CC(C)C)C(=O)N[C@@H](Cc2ccc(C(F)(F)F)cc2)C(=O)N(C)[C@@H](CC(C)C)C(=O)N[C@@H]([C@@H](C)O)C(=O)N(C)CC(=O)N1C [pd138] ([dV][NMeL][Phe(4-CF3)][NMeL]T[Sar][NMeL]S(tBu)[NMeF][NMeA]D-Piperidide; lactam N-11),26
6,CC(C)C[C@H]1C(=O)N(C)[C@@H](CC(C)C)C(=O)N[C@@H](COC(C)(C)C)C(=O)N(C)[C@@H](C(C)C)C(=O)N[C@H](C(=O)N2CCCCC2)CC(=O)N(C)CC(=O)N(C)[C@@H](Cc2ccccc2)C(=O)N[C@@H](Cc2ccc(C(F)(F)F)cc2)C(=O)N(C)[C@@H](CC(C)C)C(=O)N[C@@H]([C@@H](C)O)C(=O)N(C)CC(=O)N1C [pd140] ([Sar][NMeF][Phe(4-CF3)][NMeL]T[Sar][NMeL][NMeL]S(tBu)[NMeV]D-Piperidide; lactam N-11),25
7,CC(C)C[C@H]1C(=O)N[C@H](C(=O)N2CCCCC2)CC(=O)N[C@H](C)C(=O)N(C)[C@@H](CC(C)C)C(=O)N2CCCC[C@H]2C(=O)N(C)[C@@H](CC(C)C)C(=O)N2CCCC[C@H]2C(=O)N(C)[C@@H](C)C(=O)N[C@@H]([C@@H](C)O)C(=O)N(C)[C@@H](Cc2ccccc2)C(=O)N[C@@H](Cc2ccc(C(F)(F)F)cc2)C(=O)N1C [pd141] ([dA][NMeL][Pip][NMeL][Pip][NMeA]T[NMeF][Phe(4-CF3)][NMeL]D-Piperidide; lactam N-11),21
8,CC[C@H](C)[C@H]1C(=O)N[C@@H]([C@@H](C)O)C(=O)N(C)CC(=O)N(C)[C@@H](CC(C)C)C(=O)N[C@H](C(=O)N2CCCCC2)CC(=O)N(C)[C@@H](C)C(=O)N[C@@H](CC(C)C)C(=O)N(C)[C@@H](CC(C)C)C(=O)N(C)[C@@H](CC(C)C)C(=O)N[C@@H](Cc2ccc(C(F)(F)F)cc2)C(=O)N(C)[C@@H](C)C(=O)N1C [pd142] ([NMeA]L[NMeL][NMeL][Phe(4-CF3)][NMeA][NMeI]T[Sar][NMeL]D-Piperidide; lactam N-11),29
9,CCN1CC(=O)N[C@@H]([C@@H](C)O)C(=O)N(C)[C@@H](CC(C)C)C(=O)N(C)[C@@H](CC(C)C)C(=O)N[C@@H](Cc2ccc(C(F)(F)F)cc2)C(=O)N[C@H](C(=O)N2CCCCC2)CC(=O)N[C@@H](COC(C)(C)C)C(=O)N(C)[C@@H](CC(C)C)C1=O [pd143] (S(tBu)[NMeL][NEtG]T[NMeL][NMeL][Phe(4-CF3)]D-Piperidide; lactam N-8),11
10,CC[C@H](C)[C@@H]1NC(=O)[C@H](CC(C)C)NC(=O)[C@H](CC(C)C)N(C)C(=O)[C@H](C)NC(=O)C[C@@H](C(=O)N2CCCCC2)NC(=O)[C@H](CC(C)C)N(C)C(=O)[C@H]([C@@H](C)O)NC(=O)[C@H](Cc2ccc(C(F)(F)F)cc2)NC(=O)[C@H](CC(C)C)N(C)C1=O [pd144] (A[NMeL]LI[NMeL][Phe(4-CF3)]T[NMeL]D-Piperidide; lactam N-9),21
11,CC(C)C[C@@H]1NC(=O)[C@H](CC(C)C)N(C)C(=O)[C@H](C(C)C)NC(=O)C[C@@H](C(=O)N2CCCCC2)NC(=O)[C@H](CC(C)C)N(C)C(=O)[C@H](Cc2ccccc2)N(C)C(=O)[C@H]([C@@H](C)O)NC(=O)[C@H](Cc2ccc(C(F)(F)F)cc2)NC(=O)[C@H](C)N(C)C1=O [pd145] (V[NMeL]L[NMeA][Phe(4-CF3)]T[NMeF][NMeL]D-Piperidide; lactam N-9),12

# Same assay, conditions: human, Caco-2, improved method, preincubation 20 to 24 hours; Papp, sample at 180 minutes; read-out: Caco-2
row,SMILES,Papp A→B at 180 min [nm/s]
1,CCCN1CC(=O)N[C@@H]([C@@H](C)O)C(=O)N[C@H](C(=O)N2CCCCC2)CC(=O)N(C)[C@@H](CC(C)C)C(=O)N[C@@H](Cc2ccc(C(F)(F)F)cc2)C(=O)N(C)[C@@H](CC(C)C)C(=O)N(C)[C@@H](CC(C)C)C(=O)N[C@@H](COC(C)(C)C)C1=O [pd147] ([NMeL][Phe(4-CF3)][NMeL][NMeL]S(tBu)[NPrGly]TD-Piperidide; lactam N-8),19

# Same assay, conditions: human, Caco-2; read-out: Caco-2
row,SMILES,Papp A→B at 180 min [nm/s]
1,CC(C)C[C@@H]1NC(=O)[C@H](CC(C)C)N(C)C(=O)[C@H](C(C)C)NC(=O)C[C@@H](C(=O)N2CCCCC2)NC(=O)[C@H](CC(C)C)N(C)C(=O)[C@H]([C@@H](C)O)NC(=O)[C@H](Cc2ccc(C(F)(F)F)cc2)NC(=O)[C@H](CC(C)C)N(C)C(=O)[C@H](C)N(C)C1=O [pd146] (V[NMeL]L[NMeA][NMeL][Phe(4-CF3)]T[NMeL]D-Piperidide; lactam N-9),17
